Results published in US20240166596A1, “SULFAMOYL BENZENE DERIVATIVES AND USES THEREOF” (AphioTx Inc., priority 2021, published 2024).

Tests used:
Panx1 channel = biological target: T1, Panx1 channel (Mus musculus, UniProt Q9JIP4); experiment: YO-PRO-1 dye uptake assay in BV-2 microglia-like cells (BzATP stimulation); format: cell-based; conditions: BV-2 cells; pre-treatment; concentration not given
T1 construct: endogenous in cells; host or cells: BV-2 microglia-like cells
Procedure: After plating into 96 well plates, cell culture media was removed and BV-2 cells were incubated in extracellular solution (ECS) (140 mM NaCl, 4.5 mM KCl, 1.3 mM CaCl2, 10 mM HEPES, and 33 mM glucose; pH7.35, osmolarity 315 mOsm) containing YO-PRO-1 dye (2.5 μM, Invitrogen). After a 5 minute baseline recording, cells were stimulated with 3′-O-(4-benzoyl)benzoyl adenosine 5′-triphosphate (BzATP) (150 μM, Toronto Research Chemicals) and dye-uptake was recorded for 30 minutes. Cell viability was assessed immediately after the 30 minute recording by application of ionomycin (1 μM, Sigma). […] YO-PRO-1 fluorescent emission (491/509) was detected using a FilterMax F5 plate reader (Molecular Devices). Drugs used include (−)-norepinephrine (100 pM-1 μM, Sigma), probenecid (1 mM, Life Technologies), and Compound 1 (10 nM, Derksen et al). Drugs were bath applied in ECS containing YO-PRO-1 dye and incubated at 37° C. for 10 minutes prior to BzATP stimulation. Fluorescent emission at 30 minutes post-BzATP was calculated as an average of the entire imaging field as percent change from baseline, and responses at 30 minutes were averaged over multiple independent experiments. Individual traces of BV-2 YO-PRO-1 dye uptake were taken at 10 minute intervals and represent the average response of all BV-2 cells in the recorded view from a subset of experiments.
BV-2 microglia-like cells were maintained in DMEM (Gibco) containing 5% fetal bovine serum (Gibco) and 1% penicillin-streptomycin (Gibco) with 5% CO2.
The compounds tested were designed to more readily penetrate the blood brain barrier and were therefore predicted to require a lower dose to produce similar effects. Prior to testing the compounds in animals, the compounds were first tested in BV2 microglia-like cells using the YO-PRO-1 Dye Uptake Assay. By using this assay, Panx1 channel activity in response to BzATP stimulation of P2X7, an upstream receptor that causes Panx1 pore formation can be assessed. YO-PRO-1 is a large molecular weight dye that can only enter the cell through large pore ion channels such as Panx1, therefore its uptake correlates with Panx1 channel opening. BzATP stimulation causes a significant increase in YO-PRO-1 dye uptake in cells pre-treated with ECS and vehicle solution (0.1% DMSO) (FIG. 1, B).

[1] = biological target: T2, rPanx1 (Rattus norvegicus Pannexin-1) expressed in 293T cells (Rattus norvegicus, UniProt P60570); experiment: Whole-cell patch-clamp of Panx1 currents in transfected 293T cells; format: cell-based, Homo sapiens
T2 construct: expressed in transfected cells; host or cells: Human embryonic kidney-293T cells (ATCC), transient Lipofectamine 2000 transfection
Procedure: To further compare the effects of probenecid, Compounds 1 and 5 on Pannexin-1 channels […] Panx-1 was expressed in embryonic kidney-293T cells (293T) and channel activity was assessed at various doses of each compound.
Rattus norvegicus Pannexin-1 (rPanx1) complementary DNA (cDNA) was cloned between BamHI and SalI sites in a pRK5 expression vector (pRK5-rPanx1). Enhanced green fluorescent protein (EGFP) plasmid (pEGFP-C1) was commercially purchased (addgene).
Human embryonic kidney-293T cells (293T) were purchased from ATCC and routinely maintained in the laboratory. Adherent 293T cells were grown in Dulbecco's modified Eagle's medium (Thermo Fisher) supplemented with 10% fetal bovine serum (Thermo Fisher) and 1% penicillin-streptomycin (10,000 U/mL; Thermo Fisher) at 37° C. in a 5% CO2 humidified growth incubator. 293T cells between the passages 6-20 were used for experiments. For patch-clamp recordings, 293T cells reaching 40-60% confluency on 35 mm culture plates were transiently transfected using Lipofectamine 2000 (Thermo Fisher) 36-48 hours before experiments, using the manufacturer's protocol. 293T cells were transfected with 2.5 μg pRK5-rPanx1 and 0.5 μg pEGFP-C1 cDNAs at a mixed ratio of 5:1 to identify positively transfected cells.
On the day of experiments, transiently transfected 293T cells overexpressing rPanx1 and EGFP cDNAs were seeded onto poly-d-lysine coated glass coverslips at least 2 hours before recordings. […] Data was acquired using Clampex (v.10) software and an Axon Digidata 1550A digitizer (Axon Instruments) at 10 kHz, with currents analyzed offline in Clampfit software (v.10.7). […]
293T cells were voltage clamped at −60 mV in whole-cell configuration and exposed to a 300 ms voltage ramp (−80 to +80 mV) before stepping back to −60 mV to record rPanx1 voltage-sensitive currents. Baseline currents were first measured in extracellular solution before perfusion of drug compounds in incrementally increasing concentrations. […]

C57BL/6J mice [2] = experiment: Naloxone-precipitated morphine withdrawal, composite withdrawal score; format: in vivo; conditions: 50 mg/kg i.p., 60 minutes prior to naloxone
Procedure: Adult male C57BL/6J (7-9 weeks) mice were used. Mice were housed under 12/12 hour light/dark cycles with ad libitum access to food and water. Mice were randomly allocated to different test groups. All experiments were approved by the University of Calgary Animal Care Committee and are in accordance with the guidelines of the Canadian Council on Animal Care.
Morphine sulfate (MS, PCCA) prepared in 0.9% sterile saline solution was injected i.p. into male C57BLJ6J (20-30g) mice. Mice received ascending doses of morphine (i.p.) at 8 hours intervals: day 1, 10mg/kg; day 2, 20 mg/kg; day 3, 30 mg/kg; day 4, 40mg/kg. On day 5, mice received a morning injection of morphine (50 mg/kg). A subset of mice received probenecid (15, 25, and 50 mg/kg i.p., Invitrogen) or Compound 1 (0.1, 0.5 and 1 mg/kg) 1 hour following morphine. Mice then received i.p. naloxone (2 mg/kg, naloxone hydrochloride dihydrate, Sigma) 2 hours following morphine to rapidly induce opioid withdrawal. Control mice received equivalent volumes of 0.9% saline or appropriate vehicle solution (0.1% DMSO in saline) and were challenged with naloxone on day 5. Withdrawal behaviors were then scored for 30 minutes post naloxone injection. Behaviors were scored for occurrence and then scaled for severity at 5-minute intervals. Behaviors that were assigned a standardized score between 0-3 depending on severity were jumping, headshakes, wet-dog shakes, chewing/licking, and teeth chattering. Behaviors that were scored 1 point for presence during a 5-minute interval include piloerection and tremors/twitching. The mice were then weighed following the 30 minutes, and the weight difference was assigned a standardized score dependent on the weight change between 0-3 as well. The scaled and present/absent signs were compiled over the 30 minutes to produce a composite withdrawal score.
All data are presented as the mean±standard error mean (s.e.m), and each circle represents an individual animal or experiment. Tests of statistical difference were performed with GraphPad Prism 6 using either an ordinary one-way ANOVA with posthoc Dunnet test, or a two-way ANOVA with post hoc Sidak test. Sample sizes are consistent with those reported in similar studies and provide sufficient power to detect changes with the appropriate statistical analysis. For all experiments, a criterion a level was set at 0.05.

C57BL/6J mice [3] = conditions: background statement; pharmacological blockade of Panx1; cited from earlier work
C57BL/6J mice [4] = experiment: Naloxone-precipitated morphine withdrawal, composite withdrawal score; format: in vivo; conditions: 50 mg/kg, 30 minutes before withdrawal
[5] = background statement; cited from earlier work

T1 sequence (Q9JIP4 whole entry): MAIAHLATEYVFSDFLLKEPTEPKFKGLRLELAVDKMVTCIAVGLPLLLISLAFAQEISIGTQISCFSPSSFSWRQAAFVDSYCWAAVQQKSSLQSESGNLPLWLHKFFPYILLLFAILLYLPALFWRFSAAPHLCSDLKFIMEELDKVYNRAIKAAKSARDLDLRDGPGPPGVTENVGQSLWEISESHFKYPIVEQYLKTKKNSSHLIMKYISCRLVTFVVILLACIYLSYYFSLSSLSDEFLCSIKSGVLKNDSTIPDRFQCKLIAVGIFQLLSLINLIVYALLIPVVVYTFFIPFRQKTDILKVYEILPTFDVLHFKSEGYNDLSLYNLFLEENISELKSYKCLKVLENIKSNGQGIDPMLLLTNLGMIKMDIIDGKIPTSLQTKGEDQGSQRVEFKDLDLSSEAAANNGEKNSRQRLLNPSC
T2 sequence (P60570 whole entry): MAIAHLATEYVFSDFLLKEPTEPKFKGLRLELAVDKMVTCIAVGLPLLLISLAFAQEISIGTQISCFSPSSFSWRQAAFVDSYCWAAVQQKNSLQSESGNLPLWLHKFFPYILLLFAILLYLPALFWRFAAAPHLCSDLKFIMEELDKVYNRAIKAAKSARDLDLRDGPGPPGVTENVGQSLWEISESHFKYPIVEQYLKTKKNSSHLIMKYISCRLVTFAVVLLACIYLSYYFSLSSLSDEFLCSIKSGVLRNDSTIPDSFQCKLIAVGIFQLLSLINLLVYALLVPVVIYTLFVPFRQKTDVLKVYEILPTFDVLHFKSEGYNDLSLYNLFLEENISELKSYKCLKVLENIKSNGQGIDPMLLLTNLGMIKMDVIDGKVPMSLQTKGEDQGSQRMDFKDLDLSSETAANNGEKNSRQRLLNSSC

CCCN(CCC)S(=O)(=O)c1ccc(-c2cn[nH]c2)cc1 [Compound 5]
Panx1 channel activity (BzATP-stimulated YO-PRO-1 dye uptake) (Panx1 channel): significantly blocked
Panx1 inhibitory potency relative to Probenecid (patch-clamp) ([1]; voltage ramp -80 to +80 mV, various doses): more potent

CCCN(CCC)S(=O)(=O)c1ccc(-c2cnc(N(C)C)nc2)cc1 [Compound 6]
Panx1 channel activity (BzATP-stimulated YO-PRO-1 dye uptake) (Panx1 channel): significantly blocked

CCCN(CCC)S(=O)(=O)c1ccc(-c2ccnc(N3CCNCC3)c2)cc1 [Compound 4]
Panx1 channel activity (BzATP-stimulated YO-PRO-1 dye uptake) (Panx1 channel): significantly blocked

CCCN(CCC)S(=O)(=O)c1ccc(C(=O)O)cc1 [probenecid, reference compound]
Block of Panx1 (inhibition of transfected current) ([1]; maximum doses): 100%
Composite withdrawal score (C57BL/6J mice [2]): significantly reduced withdrawal score
Withdrawal behaviors in mice (C57BL/6J mice [3]): ameliorated withdrawal behaviors
Withdrawal behaviors (C57BL/6J mice [4]): not effective
Solubility [5]: poor solubility

CCCN(CCC)S(=O)(=O)c1ccc(-c2ccc3[nH]ncc3c2)cc1 [Compound 3, 4-(1H-indazol-5-yl)-N,N-dipropylbenzenesulfonamide]
Panx1 channel activity (BzATP-stimulated YO-PRO-1 dye uptake) (Panx1 channel): significantly blocked

CN(C)S(=O)(=O)c1ccc(C(O)(C(F)(F)F)C(F)(F)F)cc1 [Compound 2, 4-(1,1,1,3,3,3-hexafluoro-2-hydroxypropan-2-yl)-N,N-dimethylbenzenesulfonamide]
Panx1 channel activity (BzATP-stimulated YO-PRO-1 dye uptake) (Panx1 channel): significantly blocked
